The structures appear in SMILES notation.

Broadly, the IC50 is the concentration needed to halve the response being measured. Low values mean greater potency in that assay, high ones weaker potency in that assay.

For the test, the system named is Human immunodeficiency virus 1. In words: Antiviral activity against HIV1. Type of test: functional, organism-based.

On to `Cc1cn([C@H]2O[C@H](CO)C=C2F)c(=O)nc1N`, for which 100 µM corresponded to half-maximal inhibition (IC50).
With `Cc1cc(=O)oc2c3c(c(CN)cc12)OC(C)(C)[C@H](OC(=O)[C@@]12CC[C@](C)(C(=O)O1)C2(C)C)[C@@H]3OC(=O)[C@@]12CC[C@](C)(C(=O)O1)C2(C)C` the figure was 15 µM; with `Nc1ncnc2c1ncn2[C@@H]1CC(F)(F)[C@H](CO)O1`, 100 µM; with `NC(=O)O[C@@H]1Cc2ccccc2C1C1=C(O)[C@](Cc2ccccc2)(C[C@H](O)[C@H](Cc2ccccc2)NC(=O)O[C@H]2CCOC2)N=C1` (some centres undefined), 2 µM.
For the compound `C[C@H]1O[C@@H](n2c(Cl)c(C=O)c3cc(Cl)c(Cl)cc32)[C@H](O)[C@@H]1O`, the IC50 was 20 µM.
In turn, `O=C(c1cccc(Cc2ccccc2)c1)c1ncc2cccnc2c1O` registered an IC50 of 0.04 µM.
For the compound `Nc1ncnc2c1ncn2C1C=CC(OCP(=O)(O)OP(=O)(O)C(F)(F)P(=O)(O)OP(=O)(O)COC2C=CC(n3cnc4c(N)ncnc43)C2)C1` (centres undefined), the IC50 was determined as 20 µM.
Consider `NC(=O)c1[nH]c2ccc(Cl)cc2c1S(=O)(=O)c1cc(Cl)ccc1N`, for which the midpoint of inhibition, the IC50, lay at 0.3 µM.
As for `COc1ccc(Cn2nnnc2/C(O)=C/C(=O)c2c[nH]c3ccccc23)cc1`, the IC50 stood at 100 µM.
In the case of `NC(=O)c1cc2ccccc2n1S(=O)(=O)c1ccccc1`, the IC50 came to 15 µM.
As to `Nc1ncnc2c1ncn2C1C=CC(OCP(=O)(O)OP(=O)(O)C(Br)(Br)P(=O)(O)OP(=O)(O)COC2C=CC(n3cnc4c(N)ncnc43)C2)C1` (centres undefined), the IC50 came out at 200 µM. Against the preceding compound, the IC50 is about 13-fold higher.
With `Nc1nc(O)c2ncn([C@H]3CC(F)(F)[C@H](CO)O3)c2n1` the figure was 100 µM; with `Nc1ncnc2c1ncn2C1C=CC(OCP(=O)(O)OP(=O)(O)OP(=O)(O)OP(=O)(O)COC2C=CC(n3cnc4c(N)ncnc43)C2)C1` (centres undefined), 2 µM.
`NNC(=O)c1[nH]c2ccc(Cl)cc2c1Sc1ccc(F)cc1`: the 50% inhibitory concentration (IC50) stood at 5 µM.
`C=C(C)[C@@H]1CC[C@]2(C(=O)NCCCCCCCC(=O)O)CC[C@]3(C)[C@H](CC[C@@H]4[C@@]5(C)CC[C@H](O)C(C)(C)[C@@H]5CC[C@]43C)[C@@H]12` came in with an IC50 of 1 µM.
`O=C1CSC(c2c(F)cccc2F)N1c1ccc(Cl)cn1` (centres undefined) showed an IC50 of 7.19 µM.
Turning to `Cc1cn([C@H]2C=C(F)[C@H](CO)O2)c(=O)nc1O`, the IC50 turned out to be 100 µM.
`NC(=O)c1cn(S(=O)(=O)c2ccccc2)c2cc(Cl)ccc12` came in with an IC50 of 200 µM. This IC50 lies about 2-fold higher than the previous one.
With `NC(=O)c1[nH]c2ccc(Cl)cc2c1Sc1ccc(Cl)cc1` the figure was 3.1 µM; with `Cc1c(CBr)c(=O)oc2c3c(ccc12)OC(C)(C)[C@H](OC(=O)[C@@]12CC[C@](C)(C(=O)O1)C2(C)C)[C@@H]3OC(=O)[C@@]12CC[C@](C)(C(=O)O1)C2(C)C`, 20.9 µM.
Turning to `CCCCCCCCOC(=O)c1cc2c([nH]c3ccccc32)c(-c2ccc3c(n2)C(=O)C(NC(C)=O)=CC3=O)n1`, half-maximal inhibition (IC50) required 7.1 µM. Compared with the last compound, the IC50 is about 2.9-fold lower.
In the case of `Nc1ncnc2c1ncn2[C@H]1C=C(F)[C@H](CO)O1`, the 50% inhibitory concentration (IC50) is 100 µM.
In the case of `OC[C@@H]1O[C@H](n2cnc3c(O)ncnc32)C=C1F`, it took 100 µM to reach half-maximal inhibition (IC50).
`Cc1ncc([N+](=O)[O-])n1CCCOC(c1ccccc1)c1ccccc1`: the concentration for half-maximal inhibition (IC50) turned out to be 35 µM.
For `OC[C@@H]1C=C(F)[C@@H](n2cnc3c(O)ncnc32)O1`, the IC50 was found to be 100 µM.
As for `O=C(O)/C(O)=C/C(=O)c1cc(OCc2ccccc2)cc(OCc2ccccc2)c1`, the 50% inhibitory concentration (IC50) stood at 0.48 µM. Against the preceding compound, the IC50 is about 210-fold lower.
For `Fc1cccc(F)c1Cn1c(-c2c(F)cccc2F)nc2c(Cl)cccc21` the value was 0.4 µM; for `O=c1[nH]cnc2c1ncn2[C@@H]1S[C@H](CO)C=C1F`, 43.6 µM; for `Cc1cc(C)nc(N2C(=O)CSC2c2c(F)cccc2Cl)c1` (centres undefined), 0.042 µM.
For `C=C(C)[C@@H]1CC[C@]2(C(=O)NCCCCCCCC(=O)N[C@@H](CC(C)C)C(=O)O)CC[C@]3(C)[C@H](CC[C@@H]4[C@@]5(C)CC[C@H](O)C(C)(C)[C@@H]5CC[C@]43C)[C@@H]12`, the IC50 is 1.38 µM. This IC50 lies about 33-fold higher than the previous one.
As for `Cc1ccnc2c1NC(=O)c1cccnc1N2C1CC1` [NEVIRAPINE], inhibition was half-maximal at 0.06 µM (IC50). Compared with the last compound, the IC50 is about 23-fold lower.
`CO/N=C(\c1ccc(Br)cc1)C1CCN(C2(C)CCN(C(=O)c3c(C)cccc3O)CC2)CC1` yielded an IC50 of 0.004 µM.
For `C=C(C)[C@@H]1CC[C@]2(C(=O)N[C@@H](CC(C)C)C(=O)OC)CC[C@]3(C)[C@H](CC[C@@H]4[C@@]5(C)CC[C@H](OC(C)=O)C(C)(C)[C@@H]5CC[C@]43C)[C@@H]12` the value was 40 µM; for `Nc1nc2c(ncn2[C@@H]2S[C@H](CO)C=C2F)c(=O)[nH]1`, 80.5 µM; for `Cc1cc(=O)oc2c3c(c(CBr)cc12)OC(C)(C)[C@H](OC(=O)[C@@]12CC[C@](C)(C(=O)O1)C2(C)C)[C@@H]3OC(=O)[C@@]12CC[C@](C)(C(=O)O1)C2(C)C`, 13.7 µM.
For `Nc1nc2c(ncn2C2C=CC(OCP(=O)(O)OP(=O)(O)OP(=O)(O)O)C2)c(=O)[nH]1` (centres undefined) the value was 0.3 µM; for `O=C(/C=C(\O)c1nnn[nH]1)c1c[nH]c2ccccc12`, 1.9 µM.
With `Nc1ccn([C@H]2O[C@H](CO)C=C2F)c(=O)n1` the figure was 100 µM; with `COc1ccc(CC2CCN(C3(C)CCN(C(=O)c4c(C)cccc4C)CC3)CC2)cc1`, 0.026 µM; with `C=CC[C@@]1(CO)C=C[C@H](n2cc(C)c(=O)[nH]c2=O)O1`, 100 µM.
`CC(c1cc(=O)[nH]c(NC2CCCC2)n1)c1c(F)cccc1F` (centres undefined) came in with an IC50 of 0.04 µM.
For `OC[C@@H]1O[C@@H](n2cnc3c(O)ncnc32)CC1(F)F` the value was 100 µM; for `Fc1cccc(F)c1Cn1c(-c2c(F)cccc2F)nc2ccccc21`, 1.7 µM; for `Cc1cccc(C)c1OCC(=O)N[C@@H](Cc1ccccc1)[C@@H](O)C[C@H](Cc1ccccc1)NC(=O)[C@H](C(C)C)N1CCCNC1=O` [LOPINAVIR], 0.034 µM.
For the compound `Cc1c(C(C)c2c(F)cccc2F)nc(NC2CCCC2)[nH]c1=O` (centres undefined), the IC50 is 0.035 µM.
For `O=C1CSC(c2c(Cl)cccc2Cl)N1c1ccc(Br)cn1` (centres undefined) the value was 1.51 µM.
In turn, `Cc1cc(OCCCS(N)(=O)=O)ccc1NC(=O)COc1ccc(Cl)cc1C(=O)c1cc(F)cc(C(F)(F)F)c1` gave an IC50 of 0.0024 µM.
With `CCOC(=O)c1cc2ccccc2n1S(=O)(=O)c1ccccc1`, the IC50 turned out to be 200 µM.
`O=C(OC(C(=O)O)C(OC(=O)c1cccs1)C(=O)O)c1cccs1` (centres undefined) returned an IC50 of 10 µM.
The compound `Cc1ncc([N+](=O)[O-])n1CCOC(c1ccccc1)c1ccc([N+](=O)[O-])cc1` (centres undefined) registered an IC50 of 5 µM.
As for `Cc1cc(/C=C/C#N)ccc1Oc1ccnc(Nc2ccc(C#N)cc2)n1`, half-maximal inhibition (IC50) was put at 0.00063 µM.
The compound `O=C1CSC(c2c(F)cccc2F)N1c1cccc(Br)n1` (centres undefined) returned an IC50 of 0.03 µM.
On to `CC(C)C[C@H](NC(=O)[C@H](Cc1ccccc1)C[C@H](O)[C@@H](CC(=O)OC(C)(C)C)Cc1ccccc1)C(=O)N[C@@H](Cc1ccccc1)C(N)=O`, for which the IC50 stood at 0.6 µM.
Compound `CC(=O)Nc1ccc(C(OCCn2c([N+](=O)[O-])cnc2C)c2ccccc2)cc1` (centres undefined) came in with a 50% inhibitory concentration (IC50) of 200 µM.
`O=C(OC(C(=O)O)C(OC(=O)c1ccsc1)C(=O)O)c1ccsc1` (centres undefined) yielded an IC50 of 10 µM.
As to `COC[C@@H](c1ccc(C(F)(F)F)cc1)N1CCN(C2(C)CCN(C(=O)c3c(C)ncnc3C)CC2)C[C@@H]1C` [VICRIVIROC], the half-inhibitory concentration (IC50) amounted to 0.00052 µM. This IC50 is about 19000-fold lower than that of the compound before.
The compound `N#Cc1c(Cl)n([C@H]2C[C@H](O)[C@@H](CO)O2)c2cc(Cl)c(Cl)cc12` gave an IC50 of 35 µM.
As for `Nc1ccn([C@@H]2C=C(F)[C@H](CO)O2)c(=O)n1`, the IC50 was found to be 0.089 µM.
Regarding `Cc1cn([C@@H]2C=C(F)[C@H](CO)O2)c(=O)nc1O`, the IC50 stood at 100 µM.
`C#C[C@@]1(CO)C=C[C@H](n2cc(C)c(=O)[nH]c2=O)O1` [CENSAVUDINE] came in with an IC50 of 0.25 µM.
With `O=C(O)c1ccc2ccc(/C=C/c3cc(O)cc(/C=C/c4ccc5ccc(C(=O)O)c(O)c5n4)c3)nc2c1O` the figure was 100 µM; with `CC1(C)Oc2ccc3cc(CBr)c(=O)oc3c2[C@@H](OC(=O)[C@@]23CC[C@](C)(C(=O)O2)C3(C)C)[C@H]1OC(=O)[C@@]12CC[C@](C)(C(=O)O1)C2(C)C`, 11.1 µM.
Take `CCO/N=C(\c1ccc(Br)cc1)C1CCN(C2(C)CCN(C(=O)c3c(C)cc(C)nc3O)CC2)CC1`: it took 0.0064 µM to reach half-maximal inhibition (IC50).
`COC(=O)c1[nH]c(-c2ccc3c(n2)C(=O)C(NC(C)=O)=CC3=O)c2nc3ccccc3c-2c1C` had an IC50 of 15.1 µM.
Consider `Cc1ncc([N+](=O)[O-])n1CCOC(c1ccccc1)c1ccc(Cl)c(Cl)c1` (centres undefined), for which the IC50 was 97 µM.
For `CCO/N=C(\c1ccc(Br)cc1)C1CCN(C2(C)CCN(C(=O)c3c(C)ccc[n+]3[O-])CC2)CC1`, the IC50 was determined as 0.0017 µM.
In the case of `Fc1cccc(F)c1Cn1c(-c2ccccc2)nc2ccccc21`, the IC50 worked out at 0.06 µM.
With `Nc1nc(O)c2ncn([C@@H]3C=C(F)[C@H](CO)O3)c2n1` the figure was 38.5 µM; with `COc1ccc2[nH]cc(C(=O)/C=C(\O)c3nnn[nH]3)c2c1`, 40 µM.
For the compound `COc1ccc(C(OCCn2c([N+](=O)[O-])cnc2C)c2ccccc2)cc1` (centres undefined), the IC50 was determined as 86 µM.
On to `Cc1cn([C@H]2C=C[C@@](C)(CO)O2)c(=O)[nH]c1=O`, for which the IC50 was 100 µM.
Consider `NNC(=O)c1cc2ccccc2n1S(=O)(=O)c1ccccc1`, for which it took 200 µM to reach half-maximal inhibition (IC50).
For `Nc1nc(O)c2ncn([C@@H]3CC(F)(F)[C@H](CO)O3)c2n1` the value was 100 µM; for `CCn1c(C(=O)CC(=O)C(=O)OC)cc2ccccc21`, 60 µM.
Take `CC(=O)OCc1cc2ccc3c(c2oc1=O)[C@@H](OC(=O)[C@@]12CC[C@](C)(C(=O)O1)C2(C)C)[C@@H](OC(=O)[C@@]12CC[C@](C)(C(=O)O1)C2(C)C)C(C)(C)O3`: inhibition was half-maximal at 11.6 µM (IC50). This IC50 lies about 5.2-fold lower than the previous one.
For `Nc1nc2c(ncn2C2C=CC(OCP(=O)(O)OP(=O)(O)OP(=O)(O)OP(=O)(O)COC3C=CC(n4cnc5c(N)ncnc54)C3)C2)c(=O)[nH]1` (centres undefined), the IC50 turned out to be 0.7 µM. This IC50 lies about 17-fold lower than the previous one.
`CC1(C)Oc2ccc3cc(CO)c(=O)oc3c2[C@@H](OC(=O)[C@@]23CC[C@](C)(C(=O)O2)C3(C)C)[C@H]1OC(=O)[C@@]12CC[C@](C)(C(=O)O1)C2(C)C`: the IC50 stood at 23 µM.
In the case of `CC(=O)OCc1cc2c(C)cc(=O)oc2c2c1OC(C)(C)[C@H](OC(=O)[C@@]13CC[C@](C)(C(=O)O1)C3(C)C)[C@@H]2OC(=O)[C@@]12CC[C@](C)(C(=O)O1)C2(C)C`, the 50% inhibitory concentration (IC50) was determined as 14.1 µM. This IC50 lies about 1.6-fold lower than the previous one.
With `Cc1ccc(S(=O)(=O)c2c(C(N)=O)[nH]c3ccc(Cl)cc23)c(C)c1` the figure was 0.004 µM.

These data come from ChEMBL document CHEMBL1136837, “Unified QSAR approach to antimicrobials. 4. Multi-target QSAR modeling and comparative multi-distance study of the giant components of antiviral drug-drug complex networks” (Bioorg Med Chem, 2009).
